Measurements published in patent publication US7563461B2, “Zinc salt compositions for the prevention of dermal and mucosal irritation” (The Trustees of Columbia University in the City of New York, priority 2002, dated 2009).

Legend:
[1] = test system: vaginal mucosa; assay: Nonoxynol-9-induced irritation of vaginal mucosa in a rabbit model; details: gel-based lubricant containing 9% nonoxynol-9, rabbits
[2] = cited from earlier work

Row | Substance | irritation of the vaginal mucosa [1] | water solubility (in words) [2]
1 | nonoxynol-9 | mild to moderate irritation | 
2 | zinc picolinate |  | moderately water soluble
